Test results reported in ChEMBL document CHEMBL3612057, “Discovery of indolizines containing triazine moiety as new leads for the development of antitumoral agents targeting mitotic events” (2015).
Calls of active or inactive are those of the source. The calls are words filed in the database; no cut-off is given here.

How the values were obtained:
[1] = species on record: Ovis aries; assay: Inhibition of sheep tubulin polymerization at 100 uM by fluorescence assay
[2] = system: HL-60(TB); assay: Cytotoxicity against human HL-60(TB) cells assessed as growth inhibition at 10 uM after 24 hrs by SRB assay; type: functional; details: HL-60, 24 h, read-out: GI
[3] = system: NCI-H226; assay: Cytotoxicity against human NCI-H226 cells assessed as growth inhibition at 10 uM after 24 hrs by SRB assay; type: functional
[4] = system: 786-0; assay: Cytotoxicity against human 786-0 cells assessed as growth inhibition at 10 uM after 24 hrs by SRB assay; type: functional; details: 786-0, 24 h, read-out: GI
[5] = system: RPMI-8226; assay: Cytotoxicity against human RPMI8226 cells assessed as growth inhibition at 10 uM after 24 hrs by SRB assay; type: functional; details: RPMI-8226, 24 h, read-out: GI
[6] = system: UACC-62; assay: Cytotoxicity against human UACC62 cells assessed as growth inhibition at 10 uM after 24 hrs by SRB assay; type: functional; details: UACC-62, 24 h, read-out: GI
[7] = system: UACC-257; assay: Cytotoxicity against human UACC257 cells assessed as growth inhibition at 10 uM after 24 hrs by SRB assay; type: functional; details: UACC-257, 24 h, read-out: GI
[8] = system: OVCAR-8; assay: Cytotoxicity against human OVCAR8 cells assessed as growth inhibition at 10 uM after 24 hrs by SRB assay; type: functional; details: OVCAR-8, 24 h, read-out: GI
[9] = system: ACHN; assay: Cytotoxicity against human ACHN cells assessed as growth inhibition at 10 uM after 24 hrs by SRB assay; type: functional; details: read-out: GI
[10] = system: MDA-MB-435; assay: Cytotoxicity against human MDA-MB-435 cells assessed as growth inhibition at 10 uM after 24 hrs by SRB assay; type: functional; details: MDA-MB-435, 24 h, read-out: GI
[11] = system: HOP-62; assay: Cytotoxicity against human HOP62 cells assessed as growth inhibition at 10 uM after 24 hrs by SRB assay; type: functional; details: HOP-62, 24 h, read-out: GI
[12] = system: CCRF-CEM; assay: Cytotoxicity against human CCRF-CEM cells assessed as growth inhibition at 10 uM after 24 hrs by SRB assay; type: functional; details: read-out: GI
[13] = system: SNB-75; assay: Cytotoxicity against human SNB75 cells assessed as growth inhibition at 10 uM after 24 hrs by SRB assay; type: functional; details: SNB-75, 24 h, read-out: GI
[14] = system: NCI/ADR-RES; assay: Cytotoxicity against human NCI/ADR-RES cells assessed as growth inhibition at 10 uM after 24 hrs by SRB assay; type: functional; details: read-out: GI
[15] = system: A549; assay: Cytotoxicity against human A549 cells assessed as growth inhibition at 10 uM after 24 hrs by SRB assay; type: functional; details: A549, 24 h, read-out: GI
[16] = system: HOP-92; assay: Cytotoxicity against human HOP92 cells assessed as growth inhibition at 10 uM after 24 hrs by SRB assay; type: functional
[17] = system: MDA-MB-231; assay: Cytotoxicity against human MDA-MB-231 cells assessed as growth inhibition at 10 uM after 24 hrs by SRB assay; type: functional; details: MDA-MB-231, 24 h, read-out: GI
[18] = system: SF-295; assay: Cytotoxicity against human SF295 cells assessed as growth inhibition at 10 uM after 24 hrs by SRB assay; type: functional
[19] = system: K562; assay: Cytotoxicity against human K562 cells assessed as growth inhibition at 10 uM after 24 hrs by SRB assay; type: functional; details: K562, 24 h, read-out: GI
[20] = system: SK-MEL-28; assay: Cytotoxicity against human SK-MEL-28 cells assessed as growth inhibition at 10 uM after 24 hrs by SRB assay; type: functional; details: SK-MEL-28, 24 h, read-out: GI
[21] = system: CAKI-1; assay: Cytotoxicity against human CAKI-1 cells assessed as growth inhibition at 10 uM after 24 hrs by SRB assay; type: functional; details: CAKI-1, 24 h, read-out: GI
[22] = system: Malme-3M; assay: Cytotoxicity against human MALME-3M cells assessed as growth inhibition at 10 uM after 24 hrs by SRB assay; type: functional; details: read-out: GI
[23] = system: TK-10; assay: Cytotoxicity against human TK10 cells assessed as growth inhibition at 10 uM after 24 hrs by SRB assay; type: functional
[24] = system: OVCAR-3; assay: Cytotoxicity against human OVCAR3 cells assessed as growth inhibition at 10 uM after 24 hrs by SRB assay; type: functional; details: OVCAR-3, 24 h, read-out: GI
[25] = system: SK-MEL-5; assay: Cytotoxicity against human SK-MEL-5 cells assessed as growth inhibition at 10 uM after 24 hrs by SRB assay; type: functional; details: SK-MEL-5, 24 h, read-out: GI
[26] = system: SF-539; assay: Cytotoxicity against human SF539 cells assessed as growth inhibition at 10 uM after 24 hrs by SRB assay; type: functional; details: SF-539, 24 h, read-out: GI
[27] = system: PC-3; assay: Cytotoxicity against human PC3 cells assessed as growth inhibition at 10 uM after 24 hrs by SRB assay; type: functional; details: PC-3, 24 h, read-out: GI
[28] = system: SR; assay: Cytotoxicity against human SR cells assessed as growth inhibition at 10 uM after 24 hrs by SRB assay; type: functional; details: read-out: GI
[29] = system: RXF 393; assay: Cytotoxicity against human RXF393 cells assessed as growth inhibition at 10 uM after 24 hrs by SRB assay; type: functional; details: RXF 393, 24 h, read-out: GI
[30] = system: SK-OV-3; assay: Cytotoxicity against human SKOV3 cells assessed as growth inhibition at 10 uM after 24 hrs by SRB assay; type: functional; details: SK-OV-3, 24 h, read-out: GI
[31] = system: HCT-116; assay: Cytotoxicity against human HCT116 cells assessed as growth inhibition at 10 uM after 24 hrs by SRB assay; type: functional; details: HCT-116, 24 h, read-out: GI
[32] = Cytotoxicity against human Hs578T cells assessed as growth inhibition at 10 uM after 24 hrs by SRB assay; type: functional; details: Hs-578T, read-out: GI
[33] = system: NCI-H460; assay: Cytotoxicity against human NCI-H460 cells assessed as growth inhibition at 10 uM after 24 hrs by SRB assay; type: functional; details: NCI-H460, 24 h, read-out: GI
[34] = system: MCF7; assay: Cytotoxicity against human MCF7 cells assessed as growth inhibition at 10 uM after 24 hrs by SRB assay; type: functional; details: MCF7, 24 h, read-out: GI
[35] = system: OVCAR-4; assay: Cytotoxicity against human OVCAR4 cells assessed as growth inhibition at 10 uM after 24 hrs by SRB assay; type: functional; details: OVCAR-4, 24 h, read-out: GI
[36] = system: U-251; assay: Cytotoxicity against human U251 cells assessed as growth inhibition at 10 uM after 24 hrs by SRB assay; type: functional; details: U-251, 24 h, read-out: GI
[37] = system: NCI-H522; assay: Cytotoxicity against human NCI-H522 cells assessed as growth inhibition at 10 uM after 24 hrs by SRB assay; type: functional; details: NCI-H522, 24 h, read-out: GI

Question: For O=C(c1ccc(Br)cc1)c1cc(-c2nc(=O)[nH]c(=O)[nH]2)c2ccccn12, which inhibition [1] is on record?
Answer: inactive

Question: For COc1nc(-c2cc(C(=O)c3ccc(Br)cc3)n3ccccc23)[nH]c(=O)n1, which inhibition [1] is on record?
Answer: inactive

Question: Which inhibition [1] does the source give for COc1nc(OC)nc(-c2cc(C(=O)c3ccc(-c4ccccc4)cc3)n3ccccc23)n1 here?
Answer: inactive

Question: Which inhibition [1] does the source give for COc1nc(OC)nc(-c2cc(C(=O)c3ccc(F)cc3)n3ccccc23)n1 here?
Answer: inactive

Question: For COc1nc(OC)nc(-c2cc(C(=O)c3cc(OC)c(OC)c(OC)c3)n3ccc(C)cc23)n1, which inhibition of growth at 10 µM [2] is on record?
Answer: 60%

Question: What about the “growth inhibition (GI)” value [3] of the same compound?
Answer: inactive

Question: And the inhibition of growth at 10 µM [4]?
Answer: 20%

Question: What about the inhibition of growth at 10 µM [5] of the same compound?
Answer: 30%

Question: What about the inhibition of growth at 10 µM [6] of the same compound?
Answer: 63%

Question: And the inhibition of growth at 10 µM [7]?
Answer: 38%

Question: And the inhibition of growth at 10 µM [8]?
Answer: 15%

Question: And the inhibition of growth at 10 µM [9]?
Answer: 47%

Question: What about the inhibition of growth at 10 µM [10] of the same compound?
Answer: 100%

Question: What about the inhibition of growth at 10 µM [11] of the same compound?
Answer: 28%

Question: And the inhibition of growth at 10 µM [12]?
Answer: 26%

Question: What about the inhibition of growth at 10 µM [13] of the same compound?
Answer: 58%

Question: And the inhibition of growth at 10 µM [14]?
Answer: 24%

Question: And the inhibition of growth at 10 µM [15]?
Answer: 36%

Question: And the “growth inhibition (GI)” value [16]?
Answer: inactive

Question: And the inhibition of growth at 10 µM [17]?
Answer: 25%

Question: What about the “growth inhibition (GI)” value [18] of the same compound?
Answer: inactive

Question: What about the inhibition of growth at 10 µM [19] of the same compound?
Answer: 56%

Question: What about the inhibition of growth at 10 µM [20] of the same compound?
Answer: 40%

Question: And the inhibition of growth at 10 µM [21]?
Answer: 25%

Question: What about the inhibition of growth at 10 µM [22] of the same compound?
Answer: 61%

Question: What about the “growth inhibition (GI)” value [23] of the same compound?
Answer: inactive

Question: And the inhibition of growth at 10 µM [24]?
Answer: 75%

Question: What about the inhibition of growth at 10 µM [25] of the same compound?
Answer: 63%

Question: What about the inhibition of growth at 10 µM [26] of the same compound?
Answer: 29%

Question: What about the inhibition of growth at 10 µM [27] of the same compound?
Answer: 36%

Question: And the inhibition [1]?
Answer: inactive

Question: And the inhibition of growth at 10 µM [28]?
Answer: 74%

Question: What about the inhibition of growth at 10 µM [29] of the same compound?
Answer: 41%

Question: And the inhibition of growth at 10 µM [30]?
Answer: 29%

Question: And the inhibition of growth at 10 µM [31]?
Answer: 27%

Question: What about the inhibition of growth at 10 µM [32] of the same compound?
Answer: 35%

Question: What about the inhibition of growth at 10 µM [33] of the same compound?
Answer: 16%

Question: What about the inhibition of growth at 10 µM [34] of the same compound?
Answer: 73%

Question: And the inhibition of growth at 10 µM [35]?
Answer: 21%

Question: And the inhibition of growth at 10 µM [36]?
Answer: 15%

Question: What about the inhibition of growth at 10 µM [37] of the same compound?
Answer: 43%
